Laboratory results: the supplement of paper PMC13380429

How the values were obtained:
[1] = tested on: A549-ACE2 infected with SARS-CoV-2; test: cell count relative to DMSO; higher = less toxic; conditions: 24 h
[2] = tested on: Caco-2; test: cell viability relative to DMSO; higher = less toxic; conditions: 72 h
[3] = tested on: Calu-3; test: as above; conditions: 72 h
[4] = tested on: HepG2; test: as above; conditions: 72 h
[5] = tested on: U2OS; test: as above; conditions: 72 h
[6] = tested on: Vero E6; test: as above; conditions: 72 h
[7] = tested on: A549-ACE2 infected with SARS-CoV-2; test: SARS-CoV-2 infection rate relative to DMSO; higher = more infection; conditions: 24 h
[8] = tested on: A549-ACE2; test: drug-induced phospholipidosis relative to tamoxifen; higher = more phospholipidosis
[9] = tested on: A549-ACE2 infected with SARS-CoV-2; test: morphology score (similarity to uninfected cells); higher = more like uninfected cells; conditions: 24 h
[10] = tested on: Caco-2; test: relative viability EC50 (midpoint between 100% and the lowest measured viability); higher = less toxic; conditions: 72 h
[11] = tested on: Calu-3; test: as above; conditions: 72 h
[12] = tested on: HepG2; test: as above; conditions: 72 h
[13] = tested on: U2OS; test: as above; conditions: 72 h
[14] = tested on: Vero E6; test: as above; conditions: 72 h
[15] = tested on: Caco-2; test: drug sensitivity score (DSS) for viability; higher = more toxic; extreme values may be limits of the assay; conditions: 72 h
[16] = tested on: Calu-3; test: as above; conditions: 72 h
[17] = tested on: HepG2; test: as above; conditions: 72 h
[18] = tested on: U2OS; test: as above; conditions: 72 h
[19] = tested on: Vero E6; test: as above; conditions: 72 h
[20] = tested on: A549-ACE2; test: phospholipidosis EC50; higher = less potent phospholipidosis inducer

CCCN1CCN(c2ccc(C(=O)NC3(C(=O)NCC#N)CCCCC3)cc2)CC1 [balicatib]
Conditions | SARS-CoV-2 infection rate, [7] [%] | cell count, [1] [%] | cell viability, [2] [%] | cell viability, [3] [%] | cell viability, [4] [%] | cell viability, [5] [%] | cell viability, [6] [%] | morphology score, [9]
1 nM | – | – | 107 | 108 | 90 | 100 | 99.7 | –
10 nM | – | – | 101 | 100 | 103 | 99.7 | 108 | –
100 nM | – | – | 102 | 98.8 | 114 | 95 | 108 | –
0.3 µM | 86 | 107 | – | – | – | – | – | 0.39
1000 nM | – | – | 95.4 | 108 | 104 | 103 | 98.1 | –
3 µM | 45 | 116 | – | – | – | – | – | 0.76
10 µM | 33 | 119 | – | – | – | – | – | 0.78
10000 nM | – | – | 106 | 110 | 101 | 95.4 | 105 | –
30 µM | 20 | 117 | – | – | – | – | – | 0.83

drug-induced phospholipidosis [%], [8]
Conditions | 0.3 µM | 0.833333 µM | 3.33333 µM | 6.66667 µM | 10 µM | 30 µM
24 h | 1.43 | -0.89 | 1.98 | 6.47 | 8.06 | 17.1
48 h | 1.09 | -1.16 | 0.49 | 4.83 | 7.84 | 17.9
72 h | 4.12 | -0.524 | 1.07 | 5.37 | 8.73 | 20.4

Conditions | drug sensitivity score | relative viability EC50 [µM]
[10] | – | > 10
[11] | – | > 10
[12] | – | > 10
[13] | – | > 10
[14] | – | > 10
[15] | 0 | –
[16] | 0 | –
[17] | 0 | –
[18] | 0 | –
[19] | 0 | –

C[C@@H](NCCCc1cccc(C(F)(F)F)c1)c1cccc2ccccc12 [cinacalcet]
Conditions | SARS-CoV-2 infection rate [%] | cell count [%] | cell viability [%] | morphology score | phospholipidosis EC50 [µM]
[1], 0.3 µM | – | 96 | – | – | –
[1], 3 µM | – | 103 | – | – | –
[1], 10 µM | – | 87 | – | – | –
[2], 1 nM | – | – | 99.8 | – | –
[2], 10 nM | – | – | 96.4 | – | –
[2], 100 nM | – | – | 100 | – | –
[2], 1000 nM | – | – | 89.1 | – | –
[2], 10000 nM | – | – | 68.4 | – | –
[3], 1 nM | – | – | 109 | – | –
[3], 10 nM | – | – | 109 | – | –
[3], 100 nM | – | – | 101 | – | –
[3], 1000 nM | – | – | 98.6 | – | –
[3], 10000 nM | – | – | 7.3 | – | –
[4], 1 nM | – | – | 98 | – | –
[4], 10 nM | – | – | 102 | – | –
[4], 100 nM | – | – | 87.9 | – | –
[4], 1000 nM | – | – | 96.4 | – | –
[4], 10000 nM | – | – | 66.3 | – | –
[5], 1 nM | – | – | 106 | – | –
[5], 10 nM | – | – | 95.8 | – | –
[5], 100 nM | – | – | 103 | – | –
[5], 1000 nM | – | – | 99.6 | – | –
[5], 10000 nM | – | – | 89.4 | – | –
[6], 1 nM | – | – | 102 | – | –
[6], 10 nM | – | – | 106 | – | –
[6], 100 nM | – | – | 104 | – | –
[6], 1000 nM | – | – | 101 | – | –
[6], 10000 nM | – | – | 82.2 | – | –
[7], 0.3 µM | 93 | – | – | – | –
[7], 3 µM | 59 | – | – | – | –
[7], 10 µM | 54 | – | – | – | –
[9], 0.3 µM | – | – | – | 0.09 | –
[9], 3 µM | – | – | – | 0.67 | –
[9], 10 µM | – | – | – | 0.55 | –
[20], 24 h | – | – | – | – | 2.77
[20], 48 h | – | – | – | – | 4.97
[20], 72 h | – | – | – | – | 5.11

drug-induced phospholipidosis [%], [8]
Conditions | 0.3 µM | 0.833333 µM | 3.33333 µM | 6.66667 µM | 10 µM | 30 µM
24 h | 3.21 | 8.87 | 65.6 | 89.9 | 102 | 53.7
48 h | 2.84 | 6.54 | 45.1 | 87.9 | 107 | –
72 h | 4.18 | 6.97 | 37.3 | 82.3 | 102 | –

Conditions | drug sensitivity score | relative viability EC50 [µM]
[11] | – | 3.06
[13] | – | > 10
[14] | – | > 10
[15] | 2.9 | –
[16] | 5.3 | –
[17] | 2.2 | –
[18] | 0 | –
[19] | 0.4 | –

CNc1cc(OC)c(C(=O)NC2CCN(Cc3ccccc3)C2C)cc1Cl (centres undefined) [nemonapride]
Conditions | SARS-CoV-2 infection rate, [7] [%] | cell count, [1] [%] | cell viability, [2] [%] | cell viability, [3] [%] | cell viability, [4] [%] | cell viability, [5] [%] | cell viability, [6] [%] | morphology score, [9]
1 nM | – | – | 101 | 92.2 | 96 | 90.7 | 99.1 | –
10 nM | – | – | 104 | 98 | 96.1 | 99.4 | 91.9 | –
100 nM | – | – | 104 | 92.6 | 98.1 | 94.5 | 99.5 | –
0.3 µM | 100 | 99 | – | – | – | – | – | -0.15
1000 nM | – | – | 108 | 105 | 94.2 | 98.6 | 94.7 | –
3 µM | 61 | 111 | – | – | – | – | – | 0.69
10 µM | 49 | 123 | – | – | – | – | – | 0.82
10000 nM | – | – | 90.5 | 87.5 | 83.4 | 93.8 | 100 | –
30 µM | 16 | 122 | – | – | – | – | – | 0.86

drug-induced phospholipidosis [%], [8]
Conditions | 0.3 µM | 0.833333 µM | 3.33333 µM | 6.66667 µM | 10 µM | 30 µM
24 h | 1.28 | 6.8 | 10.9 | 12.3 | 18.5 | 51
48 h | 3.09 | 4.55 | 12.9 | 15.7 | 16.3 | 43.9
72 h | 5.92 | 4.8 | 14.4 | 19.3 | 24.2 | 53.2

Conditions | drug sensitivity score | relative viability EC50 [µM]
[10] | – | > 10
[11] | – | > 10
[12] | – | > 10
[13] | – | > 10
[14] | – | > 10
[15] | 0 | –
[16] | 0 | –
[17] | 0.6 | –
[18] | 0 | –
[19] | 0 | –

CCSc1ccc2c(c1)N(CCCN1CCN(C)CC1)c1ccccc1S2 [thiethylperazine]
Conditions | SARS-CoV-2 infection rate [%] | cell count [%] | cell viability [%] | morphology score | phospholipidosis EC50 [µM]
[1], 0.3 µM | – | 98 | – | – | –
[1], 3 µM | – | 116 | – | – | –
[1], 10 µM | – | 122 | – | – | –
[1], 30 µM | – | 17 | – | – | –
[2], 1 nM | – | – | 101 | – | –
[2], 10 nM | – | – | 95.4 | – | –
[2], 100 nM | – | – | 91.7 | – | –
[2], 1000 nM | – | – | 98.4 | – | –
[2], 10000 nM | – | – | 69.6 | – | –
[3], 1 nM | – | – | 101 | – | –
[3], 10 nM | – | – | 89.2 | – | –
[3], 100 nM | – | – | 95.9 | – | –
[3], 1000 nM | – | – | 110 | – | –
[3], 10000 nM | – | – | 59.9 | – | –
[4], 1 nM | – | – | 98 | – | –
[4], 10 nM | – | – | 100 | – | –
[4], 100 nM | – | – | 101 | – | –
[4], 1000 nM | – | – | 89.5 | – | –
[4], 10000 nM | – | – | 55.6 | – | –
[5], 1 nM | – | – | 103 | – | –
[5], 10 nM | – | – | 102 | – | –
[5], 100 nM | – | – | 106 | – | –
[5], 1000 nM | – | – | 106 | – | –
[5], 10000 nM | – | – | 91.6 | – | –
[6], 1 nM | – | – | 97.7 | – | –
[6], 10 nM | – | – | 95.5 | – | –
[6], 100 nM | – | – | 95 | – | –
[6], 1000 nM | – | – | 102 | – | –
[6], 10000 nM | – | – | 83.2 | – | –
[7], 0.3 µM | 99 | – | – | – | –
[7], 3 µM | 40 | – | – | – | –
[7], 10 µM | 12 | – | – | – | –
[7], 30 µM | 61 | – | – | – | –
[9], 0.3 µM | – | – | – | 0.15 | –
[9], 3 µM | – | – | – | 0.81 | –
[9], 10 µM | – | – | – | 0.8 | –
[9], 30 µM | – | – | – | -0.01 | –
[20], 24 h | – | – | – | – | 3.52
[20], 48 h | – | – | – | – | 5.17
[20], 72 h | – | – | – | – | 6.75

drug-induced phospholipidosis [%], [8]
Conditions | 0.3 µM | 0.833333 µM | 3.33333 µM | 6.66667 µM | 10 µM | 30 µM
24 h | 2.75 | 4.77 | 26.3 | 67.4 | 80 | 53.2
48 h | 3.55 | 4.25 | 19.4 | 77.1 | 97 | –
72 h | 4.26 | 5.76 | 19.6 | 70 | 104 | –

Conditions | drug sensitivity score | relative viability EC50 [µM]
[13] | – | > 10
[14] | – | > 10
[15] | 1.6 | –
[16] | 1.5 | –
[17] | 3.9 | –
[18] | 0 | –
[19] | 0.3 | –
